Data on four substances can be found in patent US7803930B2, “Antisense modulation of apolipoprotein B-expression” (Isis Pharmaceuticals, Inc., priority 2002, dated 2010).

In the oligonucleotide strings, read from the 5' end, every base follows the letter of its sugar. An asterisk marks phosphorothioate; unmarked linkages are phosphodiester. Other units and linkages are bracketed, terminal groups are in braces. A string of capitals states the bases alone. e = 2'-O-(2-methoxyethyl) (MOE); [5mC] = 5-methylcytosine; d = 2'-deoxy (DNA)

Series [1] deals with rabbit apolipoprotein B mRNA. Kind of series: Inhibition of rabbit apolipoprotein B mRNA levels in primary rabbit hepatocytes, real-time PCR. Format: cell-based. More on the design: % INHIB of rabbit apolipoprotein B mRNA levels: concentration or dose not given beside the values. The following applies: for Percent Inhibition of rabbit apolipoprotein B mRNA levels: averages from two experiments.

The nature of series [2]: Toxicity in C57BL/6 mice, two weeks (Example 48): liver enzyme levels, body, liver and spleen weight. Format: in vivo, mouse. Also on record: Weight BODY / Weight LIVER / Weight SPLEEN: unit not given here. The following applies: 25 mg/kg i.p. twice a week. The procedure: C57BL/6 mice were divided into two groups—one group receiving oligonucleotide treatment and control animals receiving saline treatment. After overnight fasting, mice were dosed intraperitoneally twice a week with saline or 25 mg/kg of one of several oligonucleotides for two weeks. The antisense oligonucleotides used in the present study were ISIS 233172 (SEQ ID NO: 835) and ISIS 233175 (SEQ ID NO: 838), both targeted to rabbit apolipoprotein B, and ISIS 281625 (SEQ ID NO: 224), ISIS 301012 (SEQ ID NO: 247), and ISIS 301027 (SEQ ID NO: 262), targeted to human apolipoprotein B. At study termination and forty eight hours after the final injections, animals were sacrificed and evaluated for liver enzyme levels, body weight, liver weight, and spleen weight.

Series [3] deals with human apolipoprotein B mRNA. Kind of series: Apolipoprotein B mRNA in primary human hepatocytes, real-time PCR. It counts as cell-based. The procedure:
In accordance with the present invention, antisense oligonucleotides targeted to human apolipoprotein B were tested in dose response studies in primary human hepatocytes. Pre-plated primary human hepatocytes were purchased from Invitro Technologies (Baltimore, Md.). Cells were cultured in high-glucose DMEM (Invitrogen Corporation, Carlsbad, Calif.) supplemented with 10% fetal bovine serum (Invitrogen Corporation, Carlsbad, Calif.), 100 units/mL and 100 μg/mL streptomycin (Invitrogen Corporation, Carlsbad, Calif.).
Human primary hepatocytes were treated with ISIS 301012 (SEQ ID NO: 247) at 10, 50, 150 or 300 nM. Untreated cells and cells treated with the scrambled control oligonucleotide ISIS 113529 ([…], SEQ ID NO: 859) served as two groups of control cells. ISIS 113529 is a chimeric oligonucleotide (“gapmer”) 20 nucleotides in length, composed of a central “gap” region consisting of ten 2′-deoxynucleotides, which is flanked on both sides (5′ and 3′ directions) by five-nucleotide “wings”. The wings are composed of 2′-methoxyethyl (2′-MOE)nucleotides. The internucleoside (backbone) linkages are phosphorothioate (P═S) throughout the oligonucleotide. All cytidines are 5-methylcytidines.
(§1) Oligonucleotides were introduced into cells through LIPOFECTIN-mediated transfection as described by other examples herein. Cells were harvested both 24 and 48 hours after treatment with oligonucleotide, and both RNA and protein were isolated. Additionally, the culture media from treated cells was collected for ELISA analysis of apolipoprotein B protein secretion.
Apolipoprotein B mRNA expression was determined by real-time PCR of RNA samples as described by other examples herein. Each result represents 6 experiments.
(§2) An additional experiment was performed to test the effects of ISIS 271009 (SEQ ID NO: 319), ISIS 281625 (SEQ ID NO: 224) and ISIS 301027 (SEQ ID NO: 262) on human apolipoprotein B mRNA in human primary hepatocytes. Cells were cultured as described herein and treated with 5, 10, 50 or 150 nM of ISIS 271009, ISIS 281625 or ISIS 301027 for a period of 24 hours. The control oligonucleotides ISIS 13650 (SEQ ID NO: 806) and ISIS 113529 (SEQ ID NO: 859) were used at 50 or 150 nM. Human apolipoprotein B mRNA expression was evaluated by real-time PCR as described by other examples herein. Apolipoprotein B protein secreted into the cultured cell media was measured in the samples treated with 50 and 150 nM of oligonucleotide, using a target protein specific ELISA kit (ALerCHEK Inc., Portland, Me.).

The next series relates to apolipoprotein B protein. Nature of the series: Apolipoprotein B protein secreted from primary human hepatocytes, ELISA. It counts as cell-based. The note with it: for % Inhibition of apolipoprotein B protein secretion: 24 hours. The procedure: as §1
Apolipoprotein secreted from into the cultured cell media was measured in the samples treated with 50 and 150 nM of oligonucleotide, using a target protein specific ELISA kit (ALerCHEK Inc., Portland, Me.). Each result represents 3 experiments.
as §2

Series [4] has as its system human apolipoprotein(a) mRNA. Nature of the series: Apolipoprotein(a) mRNA expression in primary human hepatocytes, real-time PCR. Format: cell-based. The note with it: human primary hepatocytes; 5, 10, 50 or 150 nM, 24 hours. The procedure: Primary human hepatocytes (InVitro Technologies, Baltimore, Md.), cultured and transfected as described herein, were treated with 5, 10, 50 or 150 nM of ISIS 271009 (SEQ ID NO: 319), 281625 (SEQ ID NO: 224), 301012 (SEQ ID NO: 247) or 301027 (SEQ ID NO: 262). Cells were also treated with 50 or 150 nM of the control oligonucleotides ISIS 113529 (SEQ ID NO: 859) or ISIS 13650 (SEQ ID NO: 806). Untreated cells served as a control. Following 24 hours of oligonucleotide treatment, apolipoprotein(a) mRNA expression was measured by quantitative real-time PCR as described in other examples herein.
Probes and primers to human apolipoprotein(a) were designed to hybridize to a human apolipoprotein(a) sequence, using published sequence information (GenBank accession number NM_005577.1, incorporated herein as SEQ ID NO: 860). For human apolipoprotein(a) the PCR primers were: […]
forward primer: […] (SEQ ID NO: 861)
reverse primer: TGCGTCTGAGCATTGCGT (SEQ ID NO: 862) and the PCR probe was: FAM-[…]-TAMRA (SEQ ID NO: 863) where FAM is the fluorescent dye and TAMRA is the quencher dye.
Data are the average of three experiments and are expressed as percent inhibition relative to untreated controls.
Background: Quantitative PCR measures a nucleic acid by following its amplification.

Series [5] has as its system Cynomolgous monkey apolipoprotein B mRNA. Nature of the series: Apolipoprotein B mRNA in primary Cynomolgous monkey hepatocytes, real-time PCR. The following applies: Cynomolgous monkey primary hepatocytes; 10, 50 and 150 nM, 24 hours. Format: cell-based. The procedure:
Antisense inhibition by ISIS 301012 was compared to that of ISIS 326358, which is a perfect match to the Cynomolgous monkey apolipoprotein B sequence to which ISIS 301012 hybridizes. The compounds were analyzed for their effect on Cynomolgous monkey apolipoprotein B mRNA levels in primary Cynomolgous monkey hepatocytes purchased from In Vitro Technologies ([…].). Pre-plated primary Cynonomolgous monkey hepatocytes were purchased from InVitro Technologies (Baltimore, Md.). Cells were cultured in high-glucose DMEM (Invitrogen Corporation, Carlsbad, Calif.) supplemented with 10% fetal bovine serum (Invitrogen Corporation, Carlsbad, Calif.), 100 units/mL and 100 μg/mL streptomycin (Invitrogen Corporation, Carlsbad, Calif.).
Primary Cynomolgous monkey hepatocytes were treated with 10, 50, 150 or 300 nM of antisense oligonucleotides for 48 hours. ISIS 113529 (SEQ ID NO: 859) was used as a control oligonucleotide. Untreated cells also served as a control. Cynomolgous monkey apolipoprotein B mRNA levels were quantitated by real-time PCR using the human apolipoprotein B and GAPDH primers and probes described by other examples herein. The results, shown in Table 44, are the average of 6 experiments and are expressed as percent inhibition of apolipoprotein B mRNA normalized to untreated control cells.
In a further embodiment of the invention, antisense inhibition by ISIS 281625 was compared to that by ISIS 315089, which is a perfect match to the Cynomolgous monkey apolipoprotein B sequence to which ISIS 281625 hybridizes. Primary Cynomolgous monkey hepatocytes, cultured as described herein, were treated with 10, 50, 150 or 300 nM of ISIS 315089 or ISIS 281625 for 24 hours. Cells were treated with the control oligonucleotide ISIS 13650 (SEQ ID NO: 806) at 150 and 300 nM or ISIS 113529 (SEQ ID NO: 859) at 300 nM. Untreated cells also served as a control. Cynomolgous monkey apolipoprotein B mRNA levels in primary Cynomolgous monkey hepatocytes was quantitated using real-time PCR with human primers and probe as described by other examples herein. The results, shown in Table 46, are the average of 3 experiments and are expressed as percent inhibition of apolipoprotein B mRNA normalized to untreated control cells.
ISIS 271009 (SEQ ID NO: 319) and ISIS 301027 (SEQ ID NO: 262) were also tested for their effects on apolipoprotein B mRNA and protein expression in Cynomolgous primary hepatoctyes. Cells, cultured as described herein, were treated with 10, 50 and 150 nM of ISIS 271009 or ISIS 301027 for 24 hours. Cells were treated with the control oligonucleotide ISIS 113529 (SEQ ID NO: 859) at 150 nM. Untreated cells also served as a control. Cynomolgous monkey apolipoprotein B mRNA levels in primary Cynomolgous monkey hepatocytes was quantitated using real-time PCR with human primers and probe as described by other examples herein. The results, shown in Table 48, are the average of 2 experiments and are expressed as percent inhibition of apolipoprotein B mRNA normalized to untreated control cells.

For “233175 (antisense eG*eA*e[5mC]*e[5mC]*eT*dT*dG*dA*dG*dT*dA*dG*dA*dT*dT*e[5mC]*e[5mC]*eT*eG*eG) [compound 233175]”, the “% INHIB of rabbit apolipoprotein B mRNA levels” value in series [1] came out at 90%. Besides, the “Percent Inhibition of rabbit apolipoprotein B mRNA levels” value (“Percent Inhibition” for short) in series [1] (10 nM) is recorded as 67%. Besides, the “Percent Inhibition” value in series [1] (50 nM) is given as 85%. The “Percent Inhibition” value in series [1] (150 nM) is 90%. Besides, the “Percent Inhibition” value in series [1] (300 nM) worked out at 93%. Moreover, in series [2], the “Liver Enzymes ALT” value is recorded as 230.2 IU/L, the “Liver Enzymes AST” value turned out to be 346.7 IU/L, the “Weight BODY” value was 21.5 and the “Weight LIVER” value came out at 1.4. For the same substance, in series [2], the “Weight SPLEEN” value was determined as 0.1.
For “CTCTTACTGTGCTGTGGACA (antisense e[5mC]*eT*e[5mC]*eT*eT*dA*d[5mC]*dT*dG*dT*dG*d[5mC]*dT*dG*dT*eG*eG*eA*e[5mC]*eA) [ISIS 113529, reference compound]”, the “% Inhibition of apolipoprotein B mRNA expression” value is 0% in series [3] (50 nM, 24 hours (Table 37)) and 14% in series [3] (150 nM, 24 hours (Table 37)). For the same substance, the “% Inhibition of apolipoprotein B protein secretion” value in the series with apolipoprotein B protein (150 nM, "+" = increased) is “+1%”.
Consider “GCCTCAGTCTGCTTCGCGCC (2'-MOE gapmer, further chemistry not given here) [ISIS 271009]”, for which the “% Inhibition of apolipoprotein B mRNA expression” value in series [3] (5 nM, 24 hours, "+" = expression increased) was “+4%”; in series [3] (10 nM, 24 hours (Table 37)), 5%; in series [3] (50 nM, 24 hours (Table 37)) it was 52%; in series [3] (150 nM, 24 hours (Table 37)), 81%. Also, in series [3] (5, 10, 50 or 150 nM, 24 hours), the “apolipoprotein B mRNA expression” value was “inhibit apolipoprotein B mRNA expression in a dose-dependent manner”. Also, the “% Inhibition of apolipoprotein B protein secretion” value in the series on apolipoprotein B protein (50 nM) stood at 17%; in the series with apolipoprotein B protein (150 nM, "+" = increased) it was 32%. Moreover, in the series with apolipoprotein B protein (50 and 150 nM), the “secretion of apolipoprotein B protein from cells (ELISA)” value is listed as “inhibit the secretion of apolipoprotein B protein from cells in a dose-dependent manner”. Further, in series [4], the “expression of apolipoprotein(a) mRNA” value was “inhibited apolipoprotein(a) expression at the highest dose”. Besides, the “inhibition of apolipoprotein B mRNA expression” value in series [5] is “in a dose-dependent manner”.
Turning to “ISIS 13650: SEQ ID NO: 806, control oligonucleotide (antisense TCCCGCCTGTGACATGCATT; listed as DNA, chemistry not given here) [reference compound]”, the “% Inhibition of apolipoprotein B mRNA expression” value in series [3] (50 nM, 24 hours (Table 37)) amounted to 38%; in series [3] (150 nM, 24 hours (Table 37)), 26%. In addition, the “% Inhibition of apolipoprotein B protein secretion” value with apolipoprotein B protein (150 nM, "+" = increased) is recorded as “+18%”.
